Read-outs that look alike come from different tables or passages of the source.
Experiments:
[1] = target: T1, UGT1A1 (Homo sapiens, UniProt P22309); assay: UGT1A1 inhibition in HLMs (SN-38); format: in vitro ADME; conditions: average in triplicate, read-out: IC50, UGT 1A1
T1 construct: pooled HLMs (0.25 mg/mL); tissue XenoTech H2630; host or cells: pooled human liver microsomes, mixed gender
T1 sequence (P22309 26-533): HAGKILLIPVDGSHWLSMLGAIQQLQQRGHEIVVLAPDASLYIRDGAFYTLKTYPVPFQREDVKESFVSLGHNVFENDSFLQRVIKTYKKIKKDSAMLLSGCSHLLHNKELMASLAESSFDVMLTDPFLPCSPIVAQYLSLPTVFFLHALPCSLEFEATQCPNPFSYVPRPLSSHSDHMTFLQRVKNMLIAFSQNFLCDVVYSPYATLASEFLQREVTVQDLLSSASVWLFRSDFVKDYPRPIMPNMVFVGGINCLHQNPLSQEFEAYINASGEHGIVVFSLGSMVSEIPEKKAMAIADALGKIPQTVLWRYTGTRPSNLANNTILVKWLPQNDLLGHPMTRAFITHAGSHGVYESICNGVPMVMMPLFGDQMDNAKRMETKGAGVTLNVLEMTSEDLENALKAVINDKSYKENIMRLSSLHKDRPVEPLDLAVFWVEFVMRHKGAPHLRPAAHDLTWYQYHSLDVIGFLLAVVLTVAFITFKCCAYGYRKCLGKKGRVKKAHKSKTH
Description: (§1) The inhibitory potential of six lignans on six UGT activities was evaluated using the previously developed cocktail method with slight modifications. […] These substrates are known to be selective for each UGT isoforms.

[2] = target: T2, UGT1A6 (Homo sapiens, UniProt P19224); assay: UGT1A6 inhibition in HLMs (N-acetylserotonin); format: in vitro ADME; conditions: average in triplicate, read-out: IC50, UGT 1A6
T2 construct: pooled HLMs (0.25 mg/mL); tissue XenoTech H2630; host or cells: pooled human liver microsomes, mixed gender
T2 sequence (P19224 27-532): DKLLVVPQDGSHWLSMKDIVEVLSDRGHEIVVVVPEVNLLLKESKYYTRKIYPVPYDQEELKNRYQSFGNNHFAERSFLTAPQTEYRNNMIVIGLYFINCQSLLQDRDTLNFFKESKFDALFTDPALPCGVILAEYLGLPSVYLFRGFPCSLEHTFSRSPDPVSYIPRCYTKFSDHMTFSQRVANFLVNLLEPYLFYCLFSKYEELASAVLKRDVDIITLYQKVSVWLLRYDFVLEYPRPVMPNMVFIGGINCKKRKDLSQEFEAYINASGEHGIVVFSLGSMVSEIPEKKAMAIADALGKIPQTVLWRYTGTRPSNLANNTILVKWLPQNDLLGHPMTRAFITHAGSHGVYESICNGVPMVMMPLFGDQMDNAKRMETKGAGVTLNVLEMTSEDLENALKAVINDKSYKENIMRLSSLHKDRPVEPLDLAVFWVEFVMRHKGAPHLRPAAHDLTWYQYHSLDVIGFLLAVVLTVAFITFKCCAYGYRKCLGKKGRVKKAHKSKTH
Description: as §1

[3] = tested on: P450s other than CYP1A2, CYP2B6, CYP2C19, CYP2E1 and CYP3A (range over several isoforms); assay: P450 inhibition in HLMs, summary statements over several isoforms; format: in vitro ADME, human; conditions: human, pooled human liver microsomes, pH 7.4, probe P450 probe substrate cocktails (sets A and B); HLMs; reversible inhibition; P450s other than CYP1A2, CYP2B6, CYP2C19, CYP2E1 and CYP3A
Description: (§2) Lignans were first dissolved in methanol. […] All microsomal incubations were performed in triplicate.

[4] = tested on: nine P450 enzymes; assay: as above; format: in vitro ADME, human; conditions: HLMs pre-incubated in the presence of NADPH
Description: as §2

[5] = tested on: recombinant CYP3A4; conditions: rCYP3A4, fluorescent substrate; cited from earlier work
[6] = target: six UGT enzymes; assay: UGT inhibition in HLMs, summary statements over several isoforms; format: in vitro ADME, human; conditions: UGTs other than UGT1A1 and UGT1A3
Description: as §1

[7] = tested on: recombinant CYP3A4; conditions: recombinant CYP3A4 isoform; read-out: IC50, CYP3A-mediated midazolam 1′-hydroxylation; cited from earlier work
[8] = tested on: CYP3A; parameters: method as in PMID 15342469; conditions: read-out: IC50, CYP3A-mediated testosterone hydroxylase activity; cited from earlier work
[9] = tested on: CYP1A2; parameters: method as in PMID 15342469; conditions: cited from earlier work
[10] = tested on: CYP2C9; parameters: method as in PMID 15342469; conditions: cited from earlier work
[11] = tested on: CYP2C19; parameters: method as in PMID 15342469; conditions: cited from earlier work
[12] = tested on: CYP2D6; parameters: method as in PMID 15342469; conditions: cited from earlier work
[13] = tested on: UGT1A3; parameters: method as in PMID 23339253; conditions: cited from earlier work
[14] = tested on: CYP3A4; conditions: in the presence of the inhibitor; cited from earlier work
[15] = tested on: CYP3A; parameters: method as in PMID 20448858; conditions: read-out: IC50, CYP3A-mediated midazolam hydroxylation; cited from earlier work
[16] = target: CYP2C9 (Homo sapiens, UniProt P11712); assay: in vitro; conditions: microsomes, pH 7.4, IC50 Shift
Sequence of CYP2C9 (Homo sapiens, UniProt P11712) (P11712 whole entry): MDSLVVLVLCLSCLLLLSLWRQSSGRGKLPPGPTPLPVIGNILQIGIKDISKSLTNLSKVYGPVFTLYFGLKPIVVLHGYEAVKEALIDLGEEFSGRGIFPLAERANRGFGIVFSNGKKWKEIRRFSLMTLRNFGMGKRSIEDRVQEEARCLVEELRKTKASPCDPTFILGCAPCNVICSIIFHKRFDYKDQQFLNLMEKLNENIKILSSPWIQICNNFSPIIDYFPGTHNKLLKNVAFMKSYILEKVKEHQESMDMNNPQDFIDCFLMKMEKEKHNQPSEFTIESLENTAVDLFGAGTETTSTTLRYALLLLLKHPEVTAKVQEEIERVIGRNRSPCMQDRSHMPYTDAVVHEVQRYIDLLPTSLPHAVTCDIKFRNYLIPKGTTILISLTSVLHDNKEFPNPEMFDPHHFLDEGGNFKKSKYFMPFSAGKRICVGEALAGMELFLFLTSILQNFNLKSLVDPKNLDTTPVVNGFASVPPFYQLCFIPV
Description: (§3) Lignans were first dissolved in methanol. The final organic solvent concentration in the incubation media was ≤1.0% (v/v). The microsomal incubation was conducted using two cocktail sets containing non-interactive substrates: set A containing phenacetin, bupropion, amodiaquine, diclofenac, S-mephenytoin, and dextromethorphan as substrates for CYP1A2, CYP2B6, CYP2C8, CYP2C9, CYP2C19, and CYP2D6, respectively; and set B containing coumarin and chlorzoxazone as substrates for CYP2A6 and CYP2E1, and midazolam, nifedipine, and testosterone as substrates for CYP3A4 (Table 1). These substrates are known to be selective for each P450 isoforms. Incubation mixtures containing potassium phosphate buffer (0.1 M, pH 7.4), pooled HLMs (0.25 mg/mL), P450 probe substrate cocktails, and lignan (0~50 μM) were pre-incubated at 37 °C (5 min). Following pre-incubation, an NADPH generating system (1.3 mM NADP^+, 3.3 mM G6P, 1 unit/mL G6PDH, and 3.3 mM MgCl2) was added to initiate the reaction, and further incubated for 10 min. The reaction was quenched with 50 μL of cold acetonitrile containing internal standard (IS; 7 nM trimipramine). After centrifugation at 14,000 rpm (5 min at 4 °C), aliquots of supernatants were filtered through a 0.2 μm membrane filter and were measured by liquid chromatography-tandem mass spectrometry (LC-MS/MS). All microsomal incubations were performed in triplicate.

[17] = target: CYP2C19 (Homo sapiens, UniProt P33261); assay: in vitro; conditions: microsomes, pH 7.4, IC50 Shift
Sequence of CYP2C19 (Homo sapiens, UniProt P33261) (P33261 whole entry): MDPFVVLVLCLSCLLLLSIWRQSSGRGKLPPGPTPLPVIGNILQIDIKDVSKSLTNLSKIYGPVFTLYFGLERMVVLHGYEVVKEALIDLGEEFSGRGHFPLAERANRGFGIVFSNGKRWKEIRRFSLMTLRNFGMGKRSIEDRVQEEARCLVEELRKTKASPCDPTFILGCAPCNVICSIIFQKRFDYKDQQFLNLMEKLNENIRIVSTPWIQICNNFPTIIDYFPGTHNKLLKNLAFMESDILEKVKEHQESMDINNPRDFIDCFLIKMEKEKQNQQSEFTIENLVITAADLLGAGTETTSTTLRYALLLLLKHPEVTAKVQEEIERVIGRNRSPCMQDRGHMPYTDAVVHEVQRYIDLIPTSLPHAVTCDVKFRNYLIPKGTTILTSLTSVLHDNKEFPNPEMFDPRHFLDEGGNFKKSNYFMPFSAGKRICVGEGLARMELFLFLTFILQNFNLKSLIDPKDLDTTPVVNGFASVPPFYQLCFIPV
Description: as §3

[18] = tested on: CYP3A; conditions: rats; cited from earlier work

| SMILES | IC50 [1] [µM] | IC50 [2] [µM] | IC50 at 10 min [3] [µM] | Inhibitory potential against nine P450s after pre-incubation with NADPH compared to untreated HLMs [4] | IC50 [5] [µM] | IC50 [6] [µM] | IC50 [7] [nM] | IC50 [8] [nM] | IC50 [9] [µM] | IC50 [10] [µM] | IC50 [11] [µM] | IC50 [12] [µM] | IC50 [13] [µM] | Estimated increase of AUC of drugs predominantly biotransformed by CYP3A4 [14] | IC50 [15] [µM] | IC50 shift at 10 min [16] | IC50 shift at 10 min [17] | Oral bioavailability of drugs metabolized by CYP3A, including midazolam [18] |
| --- | --- | --- | --- | --- | --- | --- | --- | --- | --- | --- | --- | --- | --- | --- | --- | --- | --- | --- |
| COc1cc2c(c(OC)c1OC)-c1c(cc(OC)c(OC)c1OC)C[C@](C)(O)[C@@H](C)C2 [Schisandrin, schisandrin] | > 50 | > 50 | 22 to 43 | did not increase | 32 |  |  |  |  |  |  |  |  |  |  |  |  |  |
| COc1c2c(cc3c1-c1c(cc4c(c1OC)OCO4)C[C@H](C)[C@H](C)C3)OCO2 [Wuweizisu C, wuweizisu C] | > 50 | > 50 |  |  |  |  |  |  |  |  |  |  |  |  |  |  |  |  |
| COc1cc2c(c(OC)c1OC)-c1c(cc3c(c1OC)OCO3)C[C@H](C)[C@](C)(O)[C@H]2OC(=O)c1ccccc1 [Gomisin C, gomisin C] | 24 | > 50 |  |  |  | > 50 | 59 | 260 to 620 | > 10 | > 10 | > 10 | > 10 | 12.5 | 22–321% |  |  |  |  |
| COc1cc2c(c(OC)c1OC)-c1c(cc3c(c1OC)OCO3)C[C@H](C)[C@H](C)C2 [Gomisin N, gomisin N] | > 50 | > 50 |  |  |  |  |  |  | > 10 | > 10 | > 10 | > 10 |  |  | 5.5 | > 1.8 | > 1.8 | increase |
